Experiments:
Integrin alpha-4/beta-1 = Integrin alpha-4/beta-1 (Homo sapiens, UniProt P05556+P13612); assay: Inhibitory activity against very late antigen-4 (VLA-4) using VCAM-Ig ligand.; format: protein-complex assay
[1] = molecular target: T1, Integrin alpha-4/beta-7 (Homo sapiens) (UniProt P13612+P26010); assay: Inhibition of MadCAM-Ig binding to alpha-4 beta-7 integrin at 0.1 uM; format: protein-complex assay
in vivo = details: Sprague-Dawley, rat, plasma
[2] = Plasma clearance was reported in Sprague-Dawley rat
[3] = Volume of distribution was reported in Sprague-Dawley rat; details: in vivo
Rattus norvegicus = species on record: Rattus norvegicus; assay: The plasma concentration versus time curve (AUC) was determined; details: in vivo
[4] = molecular target: T1, Integrin alpha-4/beta-7 (Homo sapiens); assay: Inhibition of MadCAM-Ig binding to alpha-4 beta-7 integrin at 20 uM; format: protein-complex assay
Integrin alpha-4/beta-7 = molecular target: T2, Integrin alpha-4/beta-7 (Homo sapiens, UniProt P13612+P26010); assay: Inhibition of MadCAM-Ig binding to alpha-4 beta-7 integrin; format: protein-complex assay
T2 sequence (P13612 whole entry): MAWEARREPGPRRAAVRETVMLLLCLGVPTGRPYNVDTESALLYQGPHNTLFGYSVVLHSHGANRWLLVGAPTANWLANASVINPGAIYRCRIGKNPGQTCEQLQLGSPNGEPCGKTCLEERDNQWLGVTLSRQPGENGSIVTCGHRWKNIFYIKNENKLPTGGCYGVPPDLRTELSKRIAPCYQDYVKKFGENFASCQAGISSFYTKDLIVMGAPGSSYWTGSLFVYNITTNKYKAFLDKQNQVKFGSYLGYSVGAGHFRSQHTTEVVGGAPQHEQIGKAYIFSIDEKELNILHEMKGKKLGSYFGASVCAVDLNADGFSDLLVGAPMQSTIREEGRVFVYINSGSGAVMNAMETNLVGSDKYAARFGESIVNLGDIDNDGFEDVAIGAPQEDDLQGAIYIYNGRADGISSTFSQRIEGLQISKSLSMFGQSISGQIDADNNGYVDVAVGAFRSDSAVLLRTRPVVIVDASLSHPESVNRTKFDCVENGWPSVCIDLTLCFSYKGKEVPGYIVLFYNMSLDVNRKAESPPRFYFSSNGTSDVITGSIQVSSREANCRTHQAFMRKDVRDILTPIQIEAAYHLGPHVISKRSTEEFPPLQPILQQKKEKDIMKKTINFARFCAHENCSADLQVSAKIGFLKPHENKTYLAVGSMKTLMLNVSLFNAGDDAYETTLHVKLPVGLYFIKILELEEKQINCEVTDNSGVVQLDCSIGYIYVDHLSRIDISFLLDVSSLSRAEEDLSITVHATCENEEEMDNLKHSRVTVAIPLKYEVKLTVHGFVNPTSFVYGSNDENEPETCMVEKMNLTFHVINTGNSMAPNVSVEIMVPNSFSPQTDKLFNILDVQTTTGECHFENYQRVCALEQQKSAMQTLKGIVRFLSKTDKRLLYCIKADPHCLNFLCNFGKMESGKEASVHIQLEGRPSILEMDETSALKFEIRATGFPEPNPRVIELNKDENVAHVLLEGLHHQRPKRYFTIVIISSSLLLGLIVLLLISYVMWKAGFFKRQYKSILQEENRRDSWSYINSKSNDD
T2 sequence (P26010 whole entry): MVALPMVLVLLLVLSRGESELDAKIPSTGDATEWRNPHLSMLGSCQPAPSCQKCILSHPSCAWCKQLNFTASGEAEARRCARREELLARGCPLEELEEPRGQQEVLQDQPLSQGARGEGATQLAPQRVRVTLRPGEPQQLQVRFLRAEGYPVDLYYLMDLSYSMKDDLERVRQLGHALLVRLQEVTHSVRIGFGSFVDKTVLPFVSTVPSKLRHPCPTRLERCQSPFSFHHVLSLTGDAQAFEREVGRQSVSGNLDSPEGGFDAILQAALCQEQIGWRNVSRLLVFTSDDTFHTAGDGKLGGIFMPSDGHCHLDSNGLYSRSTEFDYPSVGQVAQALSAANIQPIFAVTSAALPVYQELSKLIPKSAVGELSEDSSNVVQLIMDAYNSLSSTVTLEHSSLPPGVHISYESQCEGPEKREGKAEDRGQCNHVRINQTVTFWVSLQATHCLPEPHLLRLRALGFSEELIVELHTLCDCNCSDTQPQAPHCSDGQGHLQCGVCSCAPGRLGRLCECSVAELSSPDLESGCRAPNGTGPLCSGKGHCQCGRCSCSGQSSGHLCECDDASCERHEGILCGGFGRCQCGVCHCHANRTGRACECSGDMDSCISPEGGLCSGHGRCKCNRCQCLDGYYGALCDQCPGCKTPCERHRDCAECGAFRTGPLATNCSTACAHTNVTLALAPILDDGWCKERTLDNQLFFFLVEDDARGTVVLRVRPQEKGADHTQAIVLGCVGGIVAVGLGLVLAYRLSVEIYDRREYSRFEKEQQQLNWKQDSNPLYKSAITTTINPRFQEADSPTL

Sequence of Integrin alpha-4/beta-1 (P05556 whole entry, one chain of several): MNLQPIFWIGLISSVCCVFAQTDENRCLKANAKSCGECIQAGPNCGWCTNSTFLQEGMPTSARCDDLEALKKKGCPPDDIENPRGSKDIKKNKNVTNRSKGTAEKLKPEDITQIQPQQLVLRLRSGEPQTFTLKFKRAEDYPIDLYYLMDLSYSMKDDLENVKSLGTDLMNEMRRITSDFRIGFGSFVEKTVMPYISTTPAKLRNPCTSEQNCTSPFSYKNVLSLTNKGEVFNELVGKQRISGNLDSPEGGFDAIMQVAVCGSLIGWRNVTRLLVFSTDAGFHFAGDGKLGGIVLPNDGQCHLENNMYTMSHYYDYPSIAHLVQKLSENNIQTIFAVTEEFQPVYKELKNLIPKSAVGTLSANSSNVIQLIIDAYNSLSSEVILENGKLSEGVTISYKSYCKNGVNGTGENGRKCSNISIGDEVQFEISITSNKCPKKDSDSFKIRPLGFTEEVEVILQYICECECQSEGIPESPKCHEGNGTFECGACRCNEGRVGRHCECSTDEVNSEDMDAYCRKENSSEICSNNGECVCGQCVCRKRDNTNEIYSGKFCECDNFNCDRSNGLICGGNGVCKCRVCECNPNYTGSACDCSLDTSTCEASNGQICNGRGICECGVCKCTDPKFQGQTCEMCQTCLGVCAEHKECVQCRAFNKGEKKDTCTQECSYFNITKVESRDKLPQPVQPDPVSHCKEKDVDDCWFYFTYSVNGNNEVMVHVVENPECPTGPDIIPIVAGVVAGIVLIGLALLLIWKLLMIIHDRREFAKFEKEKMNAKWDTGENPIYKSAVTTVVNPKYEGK

| SMILES | IC50 (Integrin alpha-4/beta-1) | other results |
| --- | --- | --- |
| O=C(O)[C@H](Cc1ccccc1F)NC(=O)[C@@H]1CCCN1S(=O)(=O)c1cc(Cl)cc(Cl)c1 | 1.3 nM |  |
| O=C(O)[C@H](Cc1ccccc1Cl)NC(=O)[C@@H]1CCCN1S(=O)(=O)c1cc(Cl)cc(Cl)c1 | 0.99 nM |  |
| COc1ccc(C[C@H](NC(=O)[C@]2(C)CCCN2S(=O)(=O)c2cc(Cl)cc(Cl)c2)C(=O)O)cc1 | 0.59 nM | inhibition [1]: 16%; half-life (in vivo): 36 min; clearance [2]: 47 mL/min/kg; Vd [3]: 1.4 L/kg |
| C[C@@]1(C(=O)N[C@@H](Cc2ccc(F)cc2)C(=O)O)CCCN1S(=O)(=O)c1cc(Cl)cc(Cl)c1 | 1.2 nM | inhibition [1]: < 5%; half-life (in vivo): 72 min; clearance [2]: 44 mL/min/kg; Vd [3]: 1.2 L/kg; plasma concentration (Rattus norvegicus): ~ 1 nM |
| C[C@@]1(C(=O)N[C@@H](Cc2ccc(O)cc2)C(=O)O)CCCN1S(=O)(=O)c1cc(Cl)cc(Cl)c1 | 0.86 nM |  |
| C[C@@]1(C(=O)N[C@@H](Cc2cccs2)C(=O)O)CCCN1S(=O)(=O)c1cc(Cl)cc(Cl)c1 | 1.61 nM | inhibition [4]: 45% |
| C[C@@]1(C(=O)N[C@@H](Cc2cccc(F)c2)C(=O)O)CCCN1S(=O)(=O)c1cc(Cl)cc(Cl)c1 | 0.9 nM | inhibition [1]: < 5% |
| C[C@@]1(C(=O)N[C@@H](Cc2ccccc2)C(=O)O)CCCN1S(=O)(=O)c1cc(Cl)cc(Cl)c1 | 1 nM | IC50 (Integrin alpha-4/beta-7): 3550 nM |
| O=C(O)[C@H](Cc1cccs1)NC(=O)[C@@H]1CCCN1S(=O)(=O)c1cc(Cl)cc(Cl)c1 | 0.92 nM | IC50 (Integrin alpha-4/beta-7): 2850 nM |
| O=C(O)[C@H](Cc1ccc(Br)cc1)NC(=O)[C@@H]1CCCN1S(=O)(=O)c1cc(Cl)cc(Cl)c1 | 0.92 nM |  |
| C[C@@]1(C(=O)N[C@@H](Cc2ccccc2Cl)C(=O)O)CCCN1S(=O)(=O)c1cc(Cl)cc(Cl)c1 | 1.8 nM | inhibition [1]: < 16% |
| CC(C)(C)Oc1ccc(C[C@H](NC(=O)[C@@H]2CCCN2S(=O)(=O)c2cc(Cl)cc(Cl)c2)C(=O)O)cc1 | 0.22 nM |  |
| C[C@@]1(C(=O)N[C@@H](Cc2ccncc2)C(=O)O)CCCN1S(=O)(=O)c1cc(Cl)cc(Cl)c1 | 1.31 nM | inhibition [1]: 13% |
| C[C@@]1(C(=O)N[C@H](Cc2ccccc2)C(=O)O)CCCN1S(=O)(=O)c1cc(Cl)cc(Cl)c1 | 152 nM |  |
| O=C(O)[C@H](Cc1cscn1)NC(=O)[C@@H]1CCCN1S(=O)(=O)c1cc(Cl)cc(Cl)c1 | 0.73 nM | IC50 (Integrin alpha-4/beta-7): 2350 nM |
| O=C(O)[C@H](Cc1cccc(F)c1)NC(=O)[C@@H]1CCCN1S(=O)(=O)c1cc(Cl)cc(Cl)c1 | 0.67 nM |  |
| C[C@@]1(C(=O)N[C@@H](Cc2cccc(Cl)c2)C(=O)O)CCCN1S(=O)(=O)c1cc(Cl)cc(Cl)c1 | 1.7 nM | inhibition [1]: < 16% |
| O=C(O)[C@H](Cc1ccc([N+](=O)[O-])cc1)NC(=O)[C@@H]1CCCN1S(=O)(=O)c1cc(Cl)cc(Cl)c1 | 0.3 nM |  |
| O=C(O)[C@H](Cc1ccc(F)cc1)NC(=O)[C@@H]1CCCN1S(=O)(=O)c1cc(Cl)cc(Cl)c1 | 0.48 nM |  |
| O=C(O)[C@H](Cc1cccnc1)NC(=O)[C@@H]1CCCN1S(=O)(=O)c1cc(Cl)cc(Cl)c1 | 0.86 nM | IC50 (Integrin alpha-4/beta-7): 2100 nM |
| O=C(O)[C@H](Cc1ccc(I)cc1)NC(=O)[C@@H]1CCCN1S(=O)(=O)c1cc(Cl)cc(Cl)c1 | 0.33 nM |  |

| SMILES | IC50 (Integrin alpha-4/beta-1) | other results |
| --- | --- | --- |
| O=C(O)[C@H](Cc1ccc(OC(F)(F)F)cc1)NC(=O)[C@@H]1CCCN1S(=O)(=O)c1cc(Cl)cc(Cl)c1 | 0.86 nM |  |
| O=C(O)[C@H](Cc1cc(F)cc(F)c1)NC(=O)[C@@H]1CCCN1S(=O)(=O)c1cc(Cl)cc(Cl)c1 | 1.1 nM |  |
| C[C@@]1(C(=O)N[C@@H](Cc2ccc(Cl)cc2)C(=O)O)CCCN1S(=O)(=O)c1cc(Cl)cc(Cl)c1 | 2.3 nM | inhibition [1]: < 16% |
| O=C(O)[C@H](Cc1ccc(F)c(F)c1)NC(=O)[C@@H]1CCCN1S(=O)(=O)c1cc(Cl)cc(Cl)c1 | 0.48 nM |  |
| C[C@@]1(C(=O)N[C@@H](Cc2ccc(I)cc2)C(=O)O)CCCN1S(=O)(=O)c1cc(Cl)cc(Cl)c1 | 4.77 nM | inhibition [4]: 58% |
| O=C(O)[C@H](Cc1ccncc1)NC(=O)[C@@H]1CCCN1S(=O)(=O)c1cc(Cl)cc(Cl)c1 | 0.67 nM | inhibition [4]: 45% |
| O=C(O)[C@H](Cc1ccc(-c2ccccc2)cc1)NC(=O)[C@@H]1CCCN1S(=O)(=O)c1cc(Cl)cc(Cl)c1 | 0.65 nM |  |
| O=C(O)[C@H](Cc1cccc(Cl)c1)NC(=O)[C@@H]1CCCN1S(=O)(=O)c1cc(Cl)cc(Cl)c1 | 3.6 nM |  |
| CCc1ccc(C[C@H](NC(=O)[C@]2(C)CCCN2S(=O)(=O)c2cc(Cl)cc(Cl)c2)C(=O)O)cc1 | 1.88 nM | inhibition [1]: 2% |
| C[C@@]1(C(=O)N[C@@H](Cc2ccc(C(F)(F)F)cc2)C(=O)O)CCCN1S(=O)(=O)c1cc(Cl)cc(Cl)c1 | 3.9 nM | inhibition [1]: 25% |
| C[C@]1(C(=O)N[C@@H](Cc2ccccc2)C(=O)O)CCCN1S(=O)(=O)c1cc(Cl)cc(Cl)c1 | 2060 nM |  |
| O=C(O)[C@H](Cc1ccc(Cl)cc1)NC(=O)[C@@H]1CCCN1S(=O)(=O)c1cc(Cl)cc(Cl)c1 | 0.85 nM |  |
| C[C@@]1(C(=O)N[C@@H](Cc2ccc(OC(F)(F)F)cc2)C(=O)O)CCCN1S(=O)(=O)c1cc(Cl)cc(Cl)c1 | 3.8 nM | half-life (in vivo): 54 min; clearance [2]: 36 mL/min/kg; Vd [3]: 1.4 L/kg |
| CCc1ccc(C[C@H](NC(=O)[C@@H]2CCCN2S(=O)(=O)c2cc(Cl)cc(Cl)c2)C(=O)O)cc1 | 0.44 nM |  |
| C[C@@]1(C(=O)N[C@@H](Cc2ccccc2F)C(=O)O)CCCN1S(=O)(=O)c1cc(Cl)cc(Cl)c1 | 1.7 nM | inhibition [1]: < 5% |
| C[C@]1(C(=O)N[C@H](Cc2ccccc2)C(=O)O)CCCN1S(=O)(=O)c1cc(Cl)cc(Cl)c1 | 28400 nM |  |
| N#Cc1ccc(C[C@H](NC(=O)[C@@H]2CCCN2S(=O)(=O)c2cc(Cl)cc(Cl)c2)C(=O)O)cc1 | 0.79 nM |  |
| O=C(O)[C@H](Cc1cccc(C(F)(F)F)c1)NC(=O)[C@@H]1CCCN1S(=O)(=O)c1cc(Cl)cc(Cl)c1 | 3.2 nM |  |
| O=C(O)[C@H](Cc1ccccn1)NC(=O)[C@@H]1CCCN1S(=O)(=O)c1cc(Cl)cc(Cl)c1 | 26.5 nM |  |
| C[C@@]1(C(=O)N[C@@H](Cc2ccc(C#N)cc2)C(=O)O)CCCN1S(=O)(=O)c1cc(Cl)cc(Cl)c1 | 1.6 nM | inhibition [1]: 29% |

— ChEMBL document CHEMBL1135072, “Substituted N-(3,5-dichlorobenzenesulfonyl)-L-prolyl-phenylalanine analogues as potent VLA-4 antagonists” (Bioorg Med Chem Lett, 2002)
